# In publication PMC8301998, “Discovery of Novel Allosteric Modulators Targeting an Extra-Helical Binding Site of GLP-1R Using Structure- and Ligand-Based Virtual Screening” (Biomolecules, 2021):
# pEC50, pIC50: −log10 of the molar value. Read-outs that look alike come from different tables or passages of the source.
# Columns and labels:
# [1] = molecular target: T1, GLP-1R (Homo sapiens, UniProt P43220); settings: for Effect on binding of GLP-1 to GLP-1R (in words): radiolabeled GLP-1, WT GLP-1R
# T1 sequence (P43220 24-463): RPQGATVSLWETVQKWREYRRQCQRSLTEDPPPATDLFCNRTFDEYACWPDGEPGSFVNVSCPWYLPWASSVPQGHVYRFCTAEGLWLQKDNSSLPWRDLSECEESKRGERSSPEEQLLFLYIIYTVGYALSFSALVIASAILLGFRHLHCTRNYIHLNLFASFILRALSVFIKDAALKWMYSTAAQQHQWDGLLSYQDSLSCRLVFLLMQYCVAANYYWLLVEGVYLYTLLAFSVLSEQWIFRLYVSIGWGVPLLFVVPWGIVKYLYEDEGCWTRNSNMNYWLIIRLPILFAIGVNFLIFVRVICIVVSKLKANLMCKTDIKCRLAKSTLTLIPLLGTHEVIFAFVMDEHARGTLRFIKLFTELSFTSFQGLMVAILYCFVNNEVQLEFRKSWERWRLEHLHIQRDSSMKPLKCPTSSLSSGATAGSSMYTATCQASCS
# Method: (§1) For homogeneous binding, cells were washed twice and incubated with a blocking buffer (F12 supplemented with 33 mM HEPES, and 0.1% (w/v) BSA, pH 7.4) for 2 h at 37 °C. […] Cells were washed three times with ice-cold PBS and lysed using 50 μL of lysis buffer (PBS supplemented with 20 mM Tris–HCl and 1% Triton X-100, pH 7.4). Subsequently, the plates were counted for radioactivity (counts per minute, CPM) in a scintillation counter (MicroBeta^2 Plate Counter, PerkinElmer, Waltham, MA, USA) using a scintillation cocktail (OptiPhaseSuperMix; PerkinElmer, Waltham, MA, USA).
# [2] = molecular target: T1, GLP-1R; settings: for Modulation of GLP-1-elicited cAMP accumulation / GLP-1 potency (in words): GLP-1R expressing CHO-K1 cells
# Method: (§2) cAMP accumulation was measured using the LANCE Ultra cAMP kit (PerkinElmer, Boston, MA, USA) according to the manufacturer’s instructions. […] Cells were then resuspended with assay buffer (DMEM, 0.1% BSA, 5 mM HEPES) and seeded onto 384-well plates (6 × 10^5/mL, 5 μL/well). […] After the addition of 5 μL of Eu-cAMP tracer and ULight-anti-cAMP, the reactions were stopped. The plates were left for 1 h at room temperature to measure time-resolved FRET signals at excitation wavelengths of 620 nm and 665 nm by EnVision (PerkinElmer, Waltham, MA, USA).
# [3] = molecular target: T1, GLP-1R; experiment: cell-based
# Method: as §1
# [4] = molecular target: T1, GLP-1R; experiment: cell-based; remark: listed apart in the source
# Method: as §2
# [5] = molecular target: T2, GLP-1R C347F mutant (Homo sapiens, UniProt P43220, C347F); experiment: Whole cell binding assay, competition with radiolabeled GLP-1 at mutant GLP-1R
# T2 construct: expressed in transfected cells
# T2 sequence (P43220 24-463 C347F): as the sequence (P43220 24-463) above, with C324F counted along it
# Method: as §1
# [6] = molecular target: T2, GLP-1R C347F mutant; settings: cited from earlier work
# [7] = Table 3, PAMs, competition with 125I-GLP-1 (40 pM), whole cells
# [8] = Table 3, PAMs from LBVS, relative to maximal response of GLP-1 at WT receptor
# [9] = Table 4, analogues of new PAMs, competition with 125I-GLP-1
# [10] = Table 1, NAMs, competition with 125I-GLP-1 (40 pM), whole cells
# [11] = Table 1, NAMs from SBVS, relative to maximal response of GLP-1 at WT receptor
smiles,measurement,setting,value
O=C(Cn1c(COc2ccccc2)nc2ccccc21)Nc1ccc(Cc2nnn[nH]2)cc1 [C10],Binding Span ± SEM,[1]; [7],76.17 ± 16.21
same,cAMP Accumulation Emax (% WT),[2]; [8],92.93 ± 4.4 % WT
CN(CC(=O)N1CCC(C(=O)O)CC1)C(=O)c1cccn1CCc1ccccc1 [C11],Binding Span ± SEM,[1]; [7],−46.37 ± 5.83
same,Modulation of GLP-1-elicited cAMP accumulation / GLP-1 potency (in words),[2],positively modulated GLP-1 potency
same,pIC50,[3],5.05
CCOc1ccc(S(=O)(=O)Nc2ccccc2C(=O)OCC(=O)Nc2cc(C)on2)cc1 [C13],cAMP Accumulation Emax (% WT),[2]; [8],76.6 ± 6.24 % WT
COc1ccccc1NS(=O)(=O)c1cc(NC(=O)c2ccc(=O)n(C)n2)ccc1N1CCCC1 [C22],Binding Span ± SEM,[1]; [7],−135.7 ± 8.4
same,cAMP Accumulation Emax (% WT),[2]; [8],96.9 ± 4.56 % WT
Cc1ccc(-c2nn(-c3ccccc3)cc2C(=O)Nc2cccc(-n3cnnn3)c2)o1 [C23],Binding Span ± SEM,[1]; [7],N.B. ^d
same,Binding pIC50 ± SEM,[1]; [7],N.B. ^d
same,Modulation of GLP-1-elicited cAMP accumulation / GLP-1 potency (in words),[2],positively modulated GLP-1 potency
same,cAMP Accumulation Emax (% WT),[2]; [8],98.5 ± 3.6 % WT
same,pEC50,[4],4.80
COc1ccc(NC(=O)c2n[nH]c3ccc([N+](=O)[O-])cc23)cc1NS(=O)(=O)c1ccc(F)cc1 [C26],Binding Span ± SEM,[1]; [7],−82.09 ± 13.44
same,cAMP Accumulation Emax (% WT),[2]; [8],89.4 ± 3.72 % WT
O=C(CSc1nnc[nH]1)Nc1sc2c(c1C(=O)NCc1ccccc1)CCCC2 [C31],Binding Span ± SEM,[1]; [7],−102.5 ± 6.85
same,cAMP Accumulation Emax (% WT),[2]; [8],91.0 ± 0.95 % WT
Cc1ccc(NS(=O)(=O)c2ccc(NC(=O)c3n[nH]c4c3COc3ccccc3-4)cc2)cc1 [CD1652-A009],Binding Span ± SEM,[1]; [9],51.92 ± 9.60
same,cAMP Accumulation Emax (% WT),"[2]; Table 4, analogues of new PAMs",114.9 ± 8.6 % WT
same,pIC50,[3],5.39
CCC(C)N(CC(=O)N(Cc1cccn1Cc1ccccc1)C1CCCCC1)C(=O)C1CCC1 (stereo not drawn) [CD3532-B002],Binding Span ± SEM,[1]; [9],N.B. ^c
same,Binding pIC50 ± SEM,[1]; [9],N.B. ^c
same,cAMP Accumulation Emax (% WT),"[2]; Table 4, analogues of new PAMs",92.2 ± 3.9 % WT
same,pEC50,[4],4.80
CCCCN(CC(=O)N(Cc1cccn1Cc1ccccc1)C1CC1)C(=O)C1CCCC1 [CD3559-D005],Binding Span ± SEM,[1]; [9],35.25 ± 11.50
same,cAMP Accumulation Emax (% WT),"[2]; Table 4, analogues of new PAMs",78.2 ± 13.6 % WT
COc1ccc(S(=O)(=O)Nc2cccc(C(=O)Nc3cc(C)on3)c2)cc1 [JK1719-D011],Binding Span ± SEM,[1]; [9],59.69 ± 15.13
same,Effect on binding of GLP-1 to GLP-1R (in words),[1],weakened the ligand binding
same,cAMP Accumulation Emax (% WT),"[2]; Table 4, analogues of new PAMs",126.1 ± 4.2 % WT
O=C(O)c1cccc(NN=Cc2cn(-c3ccccc3)nc2-c2cc3ccccc3o2)c1 [Z21],Binding Span ± SEM,[1]; [10],75.3 ± 12.57
same,Effect on binding of GLP-1 to GLP-1R (in words),[1],decreased the binding of GLP-1 to GLP-1R
same,Modulation of GLP-1-elicited cAMP accumulation / GLP-1 potency (in words),[2],negatively modulated
same,cAMP Accumulation Emax (% WT),[2]; [11],97.02 ± 0.81 % WT
O=C(Nc1ccc(Cl)cc1)Nc1snnc1C(=O)Nc1ccc(C(=O)O)cc1 [Z42],Binding at C347F mutant (in words),[5],enhanced the ligand binding
same,Binding Span ± SEM,[1]; [10],N.B. ^d
same,Binding pIC50 ± SEM,[1]; [10],N.B. ^d
same,Modulation of GLP-1-elicited cAMP accumulation / GLP-1 potency (in words),[2],negatively modulated
same,cAMP Accumulation Emax (% WT),[2]; [11],99.72 ± 0.80 % WT
"CC(C)(C)Nc1nc2cc(Cl)c(Cl)cc2nc1S(C)(=O)=O [compound 2, 6,7-dichloro-3-methanesulfonyl-2-tert-butylamino-quinoxaline]",Binding at C347F mutant (in words),[6],abolishment
